Reference: patent US10208010B2, “Crystal of a heterocyclidene acetamide derivative” (MOCHIDA PHARMACEUTICAL CO., LTD., priority 2017, dated 2019)

What was measured:
human TRPV1 = target: T1, human TRPV1 (Homo sapiens, UniProt Q8NER1); assay: Measurement of capsaicin-induced Ca influx in human TRPV1-transformed CHO cell line; type: cell-based; conditions: concentration shifting the capsaicin concentration reaction curve to the right by two times; hTRPV1-CHO cells, FDSS-6000
T1 construct: expressed in transfected cells
Source text: (1) Establishment of Human TRPV1-Transformed CHO Cell Line
Human vanilloid receptor 1 (hTRPV1) cDNA was cloned from a human brain. The cloned hTRPV1 cDNA was inserted into a pCAGGS vector, which was then genetically introduced into a CHO-K1 cell line to transform the cells. Clones obtained by limiting dilution were stimulated with capsaicin, and clones with a high responsiveness were selected based on increased Ca concentration. The selected clones were then used for the following experiment.
(2) Measurement of Ca Influx Using FDSS-6000
Human TRPV1-transformed CHO cells were seeded at a density of 40,000 cells per well on a 96-well plate (black walls, transparent bottom/manufactured by Greiner Bio-One International GmbH). […] Changes in intracellular Ca concentration were measured for 3 minutes after capsaicin stimulus (1 nmol/L to 1 μmol/L) with an FDSS-6000 (λex: 480 nm, λem: 540 nm, Hamamatsu Photonics K.K.). The integral values of the respective intracellular Ca concentration increase rates in the medium group and the group treated with the crystal of the invention were calculated, and capsaicin concentration reaction curves were prepared.

[1] = Storage stability test (powder stability); type: physicochemical
Description: (Experimental Example 2) Storage Stability Test
(§1) After the end of the storage period, the samples were removed, their chemical purities were measured by high performance liquid chromatography, and the crystal forms were confirmed by x-ray powder analysis.

[2] = Solvent suspension test of crystal form mixture; type: physicochemical; conditions: 25° C.
Source text: (Experimental Example 1) Solvent Suspension Test of Crystal Form Mixture

[3] = Photostability test in accordance with ICH Q1B; type: physicochemical; conditions: for Stability with respect to light: summary in words of Table 10
Description: (Experimental Example 4) Photostability Test
After completion of the test, each sample was removed, its chemical purity was measured by high performance liquid chromatography, and the crystal form was confirmed by x-ray powder analysis.

[4] = Long-term storage stability test (powder stability); type: physicochemical
Description: (Experimental Example 3) Long-Term Storage Stability Test
as §1

[5] = 1ICH (10-day test; 1.2 million lux hours and 200 watt hours/m^2 or more at 25° C.)
[6] = 25° C./60% RH, 6 months, sealed
[7] = 25° C./60% RH, 13 months, sealed
[8] = 25° C./60% RH, 24 months, sealed
[9] = 25° C./60% RH, 36 months, sealed
[10] = 25° C./60% RH, 48 months, sealed

T1 sequence (Q8NER1 whole entry): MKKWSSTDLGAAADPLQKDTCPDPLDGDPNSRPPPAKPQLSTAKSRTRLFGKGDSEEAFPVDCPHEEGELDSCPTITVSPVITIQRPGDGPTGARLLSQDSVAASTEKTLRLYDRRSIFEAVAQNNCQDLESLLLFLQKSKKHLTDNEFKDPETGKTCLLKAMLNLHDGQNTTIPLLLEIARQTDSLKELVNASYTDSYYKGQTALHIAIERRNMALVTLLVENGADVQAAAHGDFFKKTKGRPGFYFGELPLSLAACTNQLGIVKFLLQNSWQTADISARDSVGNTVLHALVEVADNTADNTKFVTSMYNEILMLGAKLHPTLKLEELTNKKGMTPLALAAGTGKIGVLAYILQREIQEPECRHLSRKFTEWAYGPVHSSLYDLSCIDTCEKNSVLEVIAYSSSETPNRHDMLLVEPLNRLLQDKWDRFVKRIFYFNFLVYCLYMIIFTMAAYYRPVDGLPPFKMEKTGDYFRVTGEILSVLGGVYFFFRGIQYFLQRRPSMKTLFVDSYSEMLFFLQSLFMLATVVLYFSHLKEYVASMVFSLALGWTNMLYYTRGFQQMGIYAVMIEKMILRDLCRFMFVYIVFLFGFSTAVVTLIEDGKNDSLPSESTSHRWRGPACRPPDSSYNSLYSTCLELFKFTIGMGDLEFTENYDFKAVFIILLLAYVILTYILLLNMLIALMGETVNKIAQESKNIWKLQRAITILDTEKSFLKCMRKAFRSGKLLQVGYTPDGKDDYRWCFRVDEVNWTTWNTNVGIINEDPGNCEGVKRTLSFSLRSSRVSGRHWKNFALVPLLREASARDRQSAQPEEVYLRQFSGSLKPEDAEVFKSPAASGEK

Row | Structure (SMILES) | Chemical purity (%) ([1]; 25° C./60% RH, 1 month, sealed) | Crystal form ([1]; 25° C./60% RH, 1 month, sealed) | Chemical purity (%) ([1]; 40° C./75% RH, 1 month, sealed) | Crystal form ([1]; 40° C./75% RH, 1 month, sealed) | Chemical purity (%) ([1]; 60° C., 1 month, sealed) | Crystal form ([1]; 60° C., 1 month, sealed) | Chemical purity (%) ([1]; Before test) | Crystal form ([1]; Before test) | Chemical purity (%) [3, 5] | Crystal form [3, 5] | Chemical purity (%) ([3]; Before test) | Crystal form ([3]; Before test) | Stability with respect to light [3] | other results
1 | O=C(/C=C1\CCOc2cc(C(F)(F)F)ccc21)Nc1cccc2c1C[C@H](O)CC2 [Compound (1), (E)-2-(7-trifluoromethyl-chroman-4-ylidene)-N-((7R)-7-hydroxy-5,6,7,8-tetrahydronaphthalen-1-yl)acetamide] |  |  |  |  |  |  |  |  |  |  |  |  |  | A2 value (human TRPV1): A (A less than 100 nmol/L)
2 | O=C(/C=C1\CCOc2cc(C(F)(F)F)ccc21)Nc1cccc2c1C[C@H](O)CC2 [Type I crystal, (E)-2-(7-trifluoromethyl-chroman-4-ylidene)-N-((7R)-7-hydroxy-5,6,7,8-tetrahydronaphthalen-1-yl)acetamide] | >99.9% | Type I | >99.9% | Type I | >99.9% | Type I | >99.9% | Type I | >99.9% | Type I crystal | >99.9% | Type I crystal | extremely high chemical and physical stability | Thermodynamic stability in suspension [2]: thermodynamically stable in suspension; Chemical purity (%) ([4]; 25° C./60% RH, 3 months, sealed): >99.9%; Chemical purity (%) [4, 6]: >99.9%; Crystal form [4, 6]: Type I; Chemical purity (%) [4, 7]: >99.9%; Crystal form [4, 7]: Type I; Chemical purity (%) [4, 8]: >99.9%; Crystal form [4, 8]: Type I; Chemical purity (%) [4, 9]: >99.9%; Crystal form [4, 9]: Type I; Chemical purity (%) [4, 10]: >99.9%; Crystal form [4, 10]: Type I; Chemical purity (%) ([4]; Before test): >99.9%; Crystal form ([4]; Before test): Type I; Moisture absorption ([4]; during the test periods of Experimental Examples 2 and 3): no moisture absorption; Chemical and physical stability ([4]; test periods of Experimental Examples 2 and 3): chemically and physically stable throughout the test period
3 | O=C(/C=C1\CCOc2cc(C(F)(F)F)ccc21)Nc1cccc2c1C[C@H](O)CC2 [Type II crystal, (E)-2-(7-trifluoromethyl-chroman-4-ylidene)-N-((7R)-7-hydroxy-5,6,7,8-tetrahydronaphthalen-1-yl)acetamide] | >99.9% | Type II | >99.9% | Type II | >99.9% | Type II | >99.9% | Type II | 98.2% | Type II crystal | >99.9% | Type II crystal | unstable with respect to light | 
